Consider twelve compounds from US20170275298A1, “INHIBITORS OF THE RENAL OUTER MEDULLARY POTASSIUM CHANNEL” (Merck Sharp & Dohme Corp., priority 2014, published 2017).

For the experiment, the target named is T1, hROMK (hKir1.1) (Homo sapiens, UniProt P48048).
T1 construct: expressed in transfected cells
T1 sequence (P48048 1-391): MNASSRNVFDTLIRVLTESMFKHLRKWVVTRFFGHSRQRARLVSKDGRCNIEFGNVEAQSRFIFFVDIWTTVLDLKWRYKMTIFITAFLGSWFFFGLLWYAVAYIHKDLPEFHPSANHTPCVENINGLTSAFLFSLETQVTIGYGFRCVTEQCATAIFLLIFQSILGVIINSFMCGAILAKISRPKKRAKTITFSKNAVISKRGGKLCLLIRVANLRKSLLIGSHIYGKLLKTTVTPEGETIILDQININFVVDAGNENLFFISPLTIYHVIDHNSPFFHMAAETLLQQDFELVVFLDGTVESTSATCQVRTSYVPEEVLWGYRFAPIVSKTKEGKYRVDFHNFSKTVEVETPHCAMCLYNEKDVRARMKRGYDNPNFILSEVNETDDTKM
The experiment in a line: Thallium Flux Assay (ROMK channel functional thallium flux assay). It is filed as cell-based. The settings on record: HEK293 cells stably expressing hROMK (hKir1.1); FluxOR thallium flux, FLIPR-Tetra, 30 min compound incubation; read-out: ROMK TI IC50. The gist of the method:
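HEK293 cells stably expressing hROMK (hKir1.1) loaded with FluxOR dye 90 min at ambient temperature, then compound 30 min before thallium/potassium stimulant (final 3 mM Tl/0.3 mM K). ROMK-sensitive flux defined by 3 μM standard inhibitor; data as % fluorescence change.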
Regarding `Cc1c([C@@H](O)CN2CCC3(CC2)CCN(c2cnc(Br)cn2)CC3)ccc2c1COC2=O` [Example 127, (R)-5-(2-(9-(5-bromopyrazin-2-yl)-3,9-diazaspiro[5.5]undecan-3-yl)-1-hydroxyethyl)-4-methylisobenzofuran-1(3H)-one], the 50% inhibitory concentration (IC50) came to 29.9 nM.

Turning to `Cc1nccnc1N1CCC2(CCN(C[C@H](O)c3ccc4c(c3C)COC4=O)CC2)CC1` [Example 128, (R)-5-(1-hydroxy-2-(9-(3-methylpyrazin-2-yl)-3,9-diazaspiro[5.5]undecan-3-yl)ethyl)-4-methylisobenzofuran-1(3H)-one], the IC50 was 581 nM.

On to `Cc1c([C@@H](O)CN2CCC3(CC2)CCN(c2cncc(N)n2)CC3)ccc2c1COC2=O` [Example 129, (R)-5-(2-(9-(6-aminopyrazin-2-yl)-3,9-diazaspiro[5.5]undecan-3-yl)-1-hydroxyethyl)-4-methylisobenzofuran-1(3H)-one], for which the half-maximal inhibitory concentration (IC50) was determined as 68.3 nM.

As for `Cc1cc(N2CCC3(CCN(C[C@H](O)c4ccc5c(c4C)COC5=O)CC3)CC2)nnc1Cl` [Example 130, (R)-5-(2-(9-(6-chloro-5-methylpyridazin-3-yl)-3,9-diazaspiro[5.5]undecan-3-yl)-1-hydroxyethyl)-4-methylisobenzofuran-1(3H)-one], the IC50 was 553 nM.

For `Cc1c([C@@H](O)CN2CCC3(CC2)CCN(c2cc(Cl)cnn2)CC3)ccc2c1COC2=O` [Example 131, (R)-5-(2-(9-(5-chloropyridazin-3-yl)-3,9-diazaspiro[5.5]undecan-3-yl)-1-hydroxyethyl)-4-methylisobenzofuran-1(3H)-one], the half-maximal inhibitory concentration (IC50) came out at 23.8 nM.

`Cc1c([C@@H](O)CN2CCC3(CC2)CCN(c2cnc(Cl)cn2)CC3)ccc2c1COC2=O` [Example 132, (R)-5-(2-(9-(5-chloropyrazin-2-yl)-3,9-diazaspiro[5.5]undecan-3-yl)-1-hydroxyethyl)-4-methylisobenzofuran-1(3H)-one]: the 50% inhibitory concentration (IC50) worked out at 22.8 nM.

Take `Cc1c([C@@H](O)CN2CCC3(CC2)CCN(c2nccnc2Cl)CC3)ccc2c1COC2=O` [Example 133, (R)-5-(2-(9-(3-chloropyrazin-2-yl)-3,9-diazaspiro[5.5]undecan-3-yl)-1-hydroxyethyl)-4-methylisobenzofuran-1(3H)-one]: the concentration for half-maximal inhibition (IC50) stood at 274 nM.

On to `O[C@@H](CN1CCC2(CC1)CCN(c1cncc(Cl)n1)CC2)c1ccc(-n2cnnn2)nc1` [Example 134, (R)-1-(6-(1H-tetrazol-1-yl)pyridin-3-yl)-2-(9-(6-chloropyrazin-2-yl)-3,9-diazaspiro[5.5]undecan-3-yl)ethanol], for which the 50% inhibitory concentration (IC50) is 747 nM.

As for `O[C@@H](CN1CCC2(CC1)CCN(c1cnc(Cl)cn1)CC2)c1ccc(-n2cnnn2)nc1` [Example 135, (R)-1-(6-(1H-tetrazol-1-yl)pyridin-3-yl)-2-(9-(5-chloropyrazin-2-yl)-3,9-diazaspiro[5.5]undecan-3-yl)ethanol], the concentration for half-maximal inhibition (IC50) was found to be 875 nM.

`Cc1c([C@@H](O)CN2CCC3(CC2)CCN(c2ncccn2)CC3)ccc2c1COC2=O` [Example 136, (R)-5-(1-hydroxy-2-(9-(pyrimidin-2-yl)-3,9-diazaspiro[5.5]undecan-3-yl)ethyl)-4-methylisobenzofuran-1(3H)-one]: the IC50 turned out to be 330 nM.

`Cc1c([C@@H](O)CN2CCC3(CC2)CCN(c2nccs2)CC3)ccc2c1COC2=O` [Example 137, (R)-5-(1-hydroxy-2-(9-(thiazol-2-yl)-3,9-diazaspiro[5.5]undecan-3-yl)ethyl)-4-methylisobenzofuran-1(3H)-one]: the IC50 was 283 nM.

`O[C@@H](CN1CCC2(CC1)CCN(c1cc(Cl)cnn1)CC2)c1ccc(-n2cnnn2)nc1` [Example 138, (R)-1-(6-(1H-tetrazol-1-yl)pyridin-3-yl)-2-(9-(5-chloropyridazin-3-yl)-3,9-diazaspiro[5.5]undecan-3-yl)ethanol]: the IC50 is 387 nM.

By IC50 is commonly meant the concentration that inhibits the measured activity by half.
